Data on 61 compounds can be found in the METLIN SMRT retention time set (Domingo-Almenara et al. 2019).

This data set is described as follows: gradient 5% acetonitrile 3 min, to 50% in 2 min, to 85% in 15 min, held 3 min, 100 µL/min. The following applies: column: Zorbax Extend-C18 2.1 x 50 mm; eluents: water / acetonitrile, 0.1% formic acid. The procedure, abridged: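 Standards, all pure, were combined into mixtures of ~100 molecules and run at 100 μL/min on a Zorbax Extend-C18 column (2.1 × 50 mm, 1.8 μm) with water and acetonitrile, each containing 0.1% formic acid. A coupled quadrupole time-of-flight mass spectrometer operated in positive and negative ionization mode. Retention time values come from computationally picked adduct peaks, each inspected manually.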
For `Cc1cccc(CN2CC(=O)N(c3cccc(Cl)c3)[C@@H]3CS(=O)(=O)C[C@@H]32)c1`, the RP-LC retention time amounted to 892 s.

`O=C(Nc1ccc(F)cc1Cl)C1CCc2sc(C(=O)N3CCOCC3)cc2C1` (stereo unspecified) displayed an RP-LC retention time of 748 s.

`CC(C)(NC(=O)c1ccoc1)c1nc2c(c(C(N)=O)n1)OCO2`: the RP-LC retention time was determined as 818 s.

On to `Cc1c(C(=O)N2CCN(C)CC2)cnn1-c1ccc(-c2nc(C3CC3)no2)cn1`, for which the RP-LC retention time worked out at 635 s.

Take `COc1ccc(S(=O)(=O)Nc2cc3sc(=O)oc3c3ccccc23)cc1`: the RP-LC retention time is 894 s.

Take `Cn1ncc2c3ccccc3n(CCCC(=O)NCCN3CCCCCC3)c2c1=O`: the RP-LC retention time is 645 s.

As to `O=C(c1ccc2c(c1)Sc1ncccc1C(=O)N2C1CC1)N1CCCCC1`, the RP-LC retention time amounted to 733 s.

Consider `CC(C)C(=O)N1[C@H]2CC[C@@H]1c1cnc(-c3ccc(F)cc3)nc1C2`, for which the RP-LC retention time is 871 s.

`O=C(NCc1ccccc1)C1CCc2nc(N3CCOCC3)ncc2C1` (stereo unspecified) showed an RP-LC retention time of 696 s.

Compound `CSc1nnc(-c2cccc(S(=O)(=O)N3CCCC3)c2)o1` had an RP-LC retention time of 770 s.

For `O=C(Nc1nc(C(=O)N2CCN(c3ncccn3)CC2)co1)c1ccccc1`, the RP-LC retention time stood at 632 s.

`COc1cc(NC(=O)N2CCN(c3cc(C)nc(N4CCOCC4)n3)CC2)cc(OC)c1` gave an RP-LC retention time of 627 s.

`COCCn1nc(N2CCCC(NS(=O)(=O)c3c(C)nn(C)c3C)C2)ccc1=O` (stereo unspecified): the RP-LC retention time was 622 s.

For the compound `CCCCN(C)C(=O)CCC1CCN(c2cc(NC3CC3)ncn2)CC1`, the RP-LC retention time was found to be 654 s.

In turn, `Cc1ccc(NC(=O)N(C)Cc2ccoc2)cc1` came in with an RP-LC retention time of 647 s.

Consider `C[C@]12CCC(=O)C(=O)C1CC[C@@H]1[C@@H]2CC[C@]2(C)C(=O)CC[C@@H]12` (stereo partly specified), for which the RP-LC retention time stood at 1030 s.

With `Cc1ccc(C(C)NC(=O)Cn2cc(-c3noc(-c4cccnc4)n3)nc2C)cc1` (stereo unspecified), the RP-LC retention time is 715 s.

`COc1ccc(OC)c(-c2csc(-c3nnn(-c4ccc(C)cc4)c3N)n2)c1` returned an RP-LC retention time of 1160 s.

With `COC1CCC12CCN(C(=O)Nc1ccccc1)CC2` (stereo unspecified), the RP-LC retention time stood at 782 s.

Take `COc1cccc(NC(=O)CCC2CCN(S(=O)(=O)c3ccccc3)CC2)c1`: the RP-LC retention time came out at 936 s.

Compound `O=C(CCc1nc(-c2ccc(N3CCCCCC3)cc2)no1)N1CCCC1` showed an RP-LC retention time of 1080 s.

`O=C1NCCCn2cc(S(=O)(=O)N3CCN(c4ccc(F)cc4)CC3)cc21` yielded an RP-LC retention time of 730 s.

In turn, `CCc1ccc(NS(=O)(=O)c2cc(-c3c(CC)noc3NC(C)=O)ccc2OC)cc1` showed an RP-LC retention time of 802 s.

On to `O=C1CCC(NC(=O)c2ccccc2)C(=O)N1` (stereo unspecified), for which the RP-LC retention time turned out to be 650 s.

Take `O=C(NCc1c[nH]c2ncccc12)C1CCC1`: the RP-LC retention time was 558 s.

`CCOC(=O)c1cc([N+](=O)[O-])sc1NC(=O)CC`: the RP-LC retention time stood at 915 s.

As to `COc1cccc(/C=C/c2nc(-c3ccc4oc(C)nc4c3)no2)c1`, the RP-LC retention time was 1110 s.

`Cc1ccccc1Nc1c(-c2ccccc2)nc2ncccn12` had an RP-LC retention time of 759 s.

On to `CCN1C(=O)c2cccnc2Sc2cc(NC(=O)Cc3c(F)cccc3Cl)ccc21`, for which the RP-LC retention time was determined as 870 s.

The compound `CCC(C)NC(=O)CCc1c(-c2ccc(Cl)cc2)nc2ccccn12` (stereo unspecified) returned an RP-LC retention time of 653 s.

On to `O=C(c1csc(N2CCN(c3ccc(Cl)cc3)CC2)n1)N1CCCCC1`, for which the RP-LC retention time is 1130 s.

In turn, `CCOc1ccccc1NC(=O)Cn1c(=O)n(CC(N)=O)c(=O)c2oc3ccccc3c21` showed an RP-LC retention time of 704 s.

In turn, `Cc1nnc([C@@H]2CC(F)(F)CN2C(=O)c2n[nH]c3ccccc23)o1` registered an RP-LC retention time of 666 s.

`O=C(COc1ccc(Cl)cc1)N1CCN(CC(F)(F)F)CC1` showed an RP-LC retention time of 853 s.

Take `CCCN1CCCCc2cc(C(=O)NCC(F)F)sc21`: the RP-LC retention time stood at 932 s.

The compound `CCn1cnc(S(=O)(=O)N2CCC(C(=O)NC3CCCCCCC3)CC2)c1` came in with an RP-LC retention time of 769 s.

`CC(=O)N1CCCSc2ccc(S(=O)(=O)N3CCN(c4cc(C)ccc4C)CC3)cc21`: the RP-LC retention time was 1130 s.

In the case of `COc1cccc(CNC(=O)c2ccc(CN3CCN(C(C)C)C(=O)C3=O)cc2)c1`, the RP-LC retention time was 693 s.

For the compound `O=C(NCc1n[nH]c(=O)c2ccccc12)C1CC(=O)N(c2ccccc2)C1` (stereo unspecified), the RP-LC retention time was determined as 594 s.

For `CCN(C(=O)c1cccs1)c1nc(-c2ccccc2)cs1`, the RP-LC retention time worked out at 1220 s.

In turn, `CCSc1nnc(NC(=O)C2(c3cc(-c4cccs4)on3)CC2)s1` yielded an RP-LC retention time of 1020 s.

In turn, `COC(=O)c1cccc(N2C=C(C#N)S(=O)(=O)c3ccc(Cl)cc32)c1` displayed an RP-LC retention time of 930 s.

Turning to `COc1ccc(CNc2nc(NCc3ccc(OC)cc3)c3ncn(C(C)C)c3n2)cc1`, the RP-LC retention time is 809 s.

`Cc1csc(-c2ccc(CNC(=O)c3cc(F)cc(F)c3)cc2)n1`: the RP-LC retention time is 939 s.

In the case of `CCc1ccc(-c2noc(CN3C(=O)COc4cc(C)ccc43)n2)cc1`, the RP-LC retention time was 1170 s.

Compound `Cn1c(CCN2C(=O)C3(CCOCC3)CC2c2nnnn2C(C)(C)C)nc2ccccc21` (stereo unspecified) yielded an RP-LC retention time of 578 s.

In turn, `O=C(Nc1ccc(S(=O)(=O)N2CCOCC2)cc1)c1ccc(Cl)s1` registered an RP-LC retention time of 767 s.

`COc1cc(OC)c2c(=O)cc(-c3cccnc3)oc2c1` showed an RP-LC retention time of 733 s.

Take `O=C(Nc1ccc2c(c1)OCCO2)N1CCN(c2cc(-c3ccccc3)ncn2)CC1`: the RP-LC retention time was determined as 645 s.

In the case of `CNC(=O)[C@@H]1C[C@@H](O)CN1C1CCN(C(=O)C2CCCCC2)CC1`, the RP-LC retention time was 577 s.

Regarding `O=C(Nc1ccc2nc3n(c(=O)c2c1)CCCCC3)C(=O)NC1CC1`, the RP-LC retention time stood at 687 s.

In turn, `Cc1ccc2c(c1)N(S(C)(=O)=O)CCC(C(=O)N1CCCCC1)O2` (stereo unspecified) displayed an RP-LC retention time of 862 s.

`Cc1cc(N(CCCl)CCCl)ccc1/C=N/NC(=O)Cc1cc(=O)oc2cc(O)ccc12` showed an RP-LC retention time of 862 s.

Turning to `CCCNC(=O)N1CC(Oc2ccc(-c3nc(-c4ccccc4)no3)cc2)C1`, the RP-LC retention time amounted to 861 s.

`Cn1cc2c3c(cccc31)CN(C(=O)c1ccccc1F)CC2`: the RP-LC retention time worked out at 875 s.

For the compound `Cc1ccc(C2Cn3nnc(C(=O)NC4CCCCC4)c3CO2)cc1` (stereo unspecified), the RP-LC retention time worked out at 1050 s.

Turning to `Cc1ccc2nc(-c3ccc(N4CCOCC4)cc3)c(Nc3ccccc3C)n2c1`, the RP-LC retention time came to 755 s.

Take `CCOc1ccc(N2CC(NC(=O)NCCc3ccc(S(N)(=O)=O)cc3)CC2=O)cc1` (stereo unspecified): the RP-LC retention time worked out at 617 s.

In turn, `COC1CCC12CCN(C(=O)c1ccc(Cc3c(C)n[nH]c3C)o1)CC2` (stereo unspecified) gave an RP-LC retention time of 656 s.

The compound `COc1cccc(-n2c(N3CCCC(C(=O)NC4CC4)C3)nc3ccsc3c2=O)c1` (stereo unspecified) displayed an RP-LC retention time of 710 s.

For the compound `O=C(CCc1nnn2c1CN(C(=O)NC1CCCCC1)CC2)N1CCOCC1`, the RP-LC retention time was 634 s.
